Results reported in patent publication US10336792B2, “Antimicrobial peptide dendrimers” (priority 2014, dated 2019).
≈ marks a conversion by molar mass, not a printed value. Positions of bridges follow the written chain, without caps; N, C: chain ends. Non-standard residues stand in square brackets, D forms with d. Residues, ends and D or L forms follow the SMILES beside them. Groups on a side chain read outwards from the residue. Chains are numbered I, II in the order given. *: point of attachment. Lauroyl = CCCCCCCCCCCC(=O)*; dDap = NC[C@@H](N)C(=O)O; Dab = NCC[C@H](N)C(=O)O; Dap = NC[C@H](N)C(=O)O; Hexanoyl = CCCCCC(=O)*

Columns and labels:
Format in all cases: cell-based
[1] = tested on: Pseudomonas aeruginosa (strain PA01); assay: microbe, parasite or virus in culture; details: strain
In short: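 P. aeruginosa PAO1 grown overnight in LB, diluted to OD600 0.001 and mixed with ⅔-step peptide dilutions, then incubated at 37 °C for 18–24 h. After MTT staining, the lowest concentration with no visible growth was read by eye as the MIC.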

[2] = tested on: Escherichia coli (strain DH5α); details: DH5α
In short: (§1)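 Broth microdilution MIC in LB; overnight cultures diluted to OD600 0.001 and mixed 1:1 with ⅔-serially diluted samples (stock 1 mg mL^−1 in H2O), 37° C for 18-24 h. MTT (0.1%) added; MIC read by eye as lowest concentration inhibiting visible growth (yellow).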

[3] = tested on: Bacillus subtilis (strain BR151); details: strain BR151
In short: as §1

[4] = tested on: Staphylococcus aureus (COL, MRSA reference strain); details: COL, reference strain
Procedure: Antimicrobial activity was assayed against P. aeruginosa PA01 (WT), P. aeruginosa PT1482 (A-), PT1485 (A-B-), PT1149 (A-B-C-algC), PT331 (Z61) (LPS mutants), P. aeruginosa PEJ2.6, PEJ9.1, ZEM1.A, ZEM9.A (clinical isolates from Université de Genève/Centre Médical Universitaire), Burkholderia cenocepacia (B. ceno), Staphylococcus aureus (S. aureus, MRSA strain) and Acinetobacter baumannii (A. baum) (clinical isolates from Université de Genève/Centre Médical Universitaire). To determine the minimal inhibitory concentration (MIC), microdilution broth method was used. A colony of bacteria was grown in MH-medium overnight at 37° C. The samples were prepared as stock solutions of 8 mg mL^−1 in H2O, diluted to the beginning concentration of 32, 64, 128 or 256 μg/mL in 300 μL MH-medium, added to the first well of 96-well microtiterplate (TPP, untreated) and diluted serially by ½. The concentration of the bacteria was quantified by measuring absorbance at 600 nm and diluted to OD600=0.022 in MH-medium. The sample solutions (150 μL) were mixed with 4 μL diluted bacterial suspension with a final inoculation of about of 5×10^5 CFU. The plates were incubated at 37° C. until satisfactory growth (˜18 h). For each test, two columns of the plate were kept for sterility control (SC, broth only) and growth control (GC, broth with bacterial inoculums, no antibiotics). The minimal inhibitory concentration (MIC) was defined as the lowest concentration of the antimicrobial substance (peptide dendrimer) that inhibited visible growth of the tested bacteria with the unaided eye. For microbiological study Polymyxin was used as references.
Ten of the most promising compounds (FIG. 5) were tested for their efficiency against four clinical isolates of P. aeruginosa (ZEM9.A, ZEM1.A, PEJ2.6, PEJ9.1), one S. aureus (COL, MRSA reference strain) and one A. baumannii strain. For the experiments in Genève the peptide dendrimers and reference compounds (polymyxin) were dissolved in PBS and the assay was carried out in Müller-Hinton (MH) broth with a two-fold dilution.

Row | SMILES | MIC P. aeruginosa PAO1 [1] [µg/mL] | MIC E. coli DH5α [2] [µg/mL] | MIC B. subtilis BR151 [3] [µg/mL] | MIC S. aureus (COL, MRSA reference strain) [4]
1 | CCCCCCCCCCCC(=O)NCCCC[C@H](NC(=O)[C@H](CC(C)C)NC(=O)[C@H](CCCCN)NC(=O)[C@H](CCCCNC(=O)[C@H](CC(C)C)NC(=O)[C@H](CCCCN)NC(=O)[C@H](CCCCNC(=O)[C@H](CC(C)C)NC(=O)[C@@H](N)CCCCN)NC(=O)[C@H](CC(C)C)NC(=O)[C@@H](N)CCCCN)NC(=O)[C@H](CC(C)C)NC(=O)[C@H](CCCCN)NC(=O)[C@H](CCCCNC(=O)[C@H](CC(C)C)NC(=O)[C@@H](N)CCCCN)NC(=O)[C@H](CC(C)C)NC(=O)[C@@H](N)CCCCN)C(N)=O [MSt-263, (KL)4(KKL)2(KKLKC12)] (I: H-KLK([Leu-Lys])KLKKLK(Lauroyl)-NH2 / II: H-KLK([Leu-Lys])KL; amide I:6-II:C) | 1 (≈ 0.416 µM) | 1 (≈ 0.416 µM) | 2 (≈ 0.833 µM) | below 20 μg/mL
2 | CC(C)C[C@@H](NC(=O)[C@@H](CCCCN)NC(=O)[C@@H](CNC(=O)[C@@H](CC(C)C)NC(=O)[C@@H](CCCCN)NC(=O)[C@@H](CNC(=O)[C@@H](CC(C)C)NC(=O)[C@@H](CCCCN)NC(=O)[C@@H](CNC(=O)[C@@H](CC(C)C)NC(=O)[C@H](N)CCCCN)NC(=O)[C@@H](CC(C)C)NC(=O)[C@H](N)CCCCN)NC(=O)[C@@H](CC(C)C)NC(=O)[C@@H](CCCCN)NC(=O)[C@@H](CNC(=O)[C@@H](CC(C)C)NC(=O)[C@H](N)CCCCN)NC(=O)[C@@H](CC(C)C)NC(=O)[C@H](N)CCCCN)NC(=O)[C@@H](CC(C)C)NC(=O)[C@@H](CCCCN)NC(=O)[C@@H](CNC(=O)[C@@H](CC(C)C)NC(=O)[C@@H](CCCCN)NC(=O)[C@@H](CNC(=O)[C@@H](CC(C)C)NC(=O)[C@H](N)CCCCN)NC(=O)[C@@H](CC(C)C)NC(=O)[C@H](N)CCCCN)NC(=O)[C@@H](CC(C)C)NC(=O)[C@@H](CCCCN)NC(=O)[C@@H](CNC(=O)[C@@H](CC(C)C)NC(=O)[C@H](N)CCCCN)NC(=O)[C@@H](CC(C)C)NC(=O)[C@H](N)CCCCN)C(N)=O [MSt-154, (kl)8(bkl)4(bkl)2(bkl)] (I: H-[dK][dL][dDap]([dL-dK])[dK][dL][dDap][dK][dL][dDap][dK][dL]-NH2 / II: H-[dK][dL][dDap]([dL-dK])[dK][dL][dDap][dK][dL] / III: H-[dK][dL][dDap]([dL-dK])[dK][dL] / IV: H-[dK][dL][dDap]([dL-dK])[dK][dL]; amide I:6-IV:C, I:9-II:C, II:6-III:C) | 6 (≈ 1.42 µM) | 2 (≈ 0.472 µM) | 2 (≈ 0.472 µM) | –
3 | CCCCCC(=O)N[C@@H](CCCCN)C(=O)N[C@@H](CC(C)C)C(=O)NCCCC[C@H](NC(=O)[C@H](CC(C)C)NC(=O)[C@H](CCCCN)NC(=O)CCCCC)C(=O)N[C@@H](CCCCN)C(=O)N[C@@H](CC(C)C)C(=O)NCCCC[C@H](NC(=O)[C@H](CC(C)C)NC(=O)[C@H](CCCCN)NC(=O)[C@H](CCCCNC(=O)[C@H](CC(C)C)NC(=O)[C@H](CCCCN)NC(=O)CCCCC)NC(=O)[C@H](CC(C)C)NC(=O)[C@H](CCCCN)NC(=O)CCCCC)C(=O)N[C@@H](CCCCN)C(=O)N[C@@H](CC(C)C)C(N)=O [MSt-290, (C6KL)4(KKL)2(KKL)] (I: Hexanoyl-KLK([Leu-Lys-Hexanoyl])KLKKL-NH2 / II: Hexanoyl-KLK([Leu-Lys-Hexanoyl])KL; amide I:6-II:C) | 2 (≈ 0.805 µM) | 1 (≈ 0.403 µM) | 1 (≈ 0.403 µM) | –
4 | CCCCCC(=O)NCCCC[C@H](NC(=O)[C@H](CC(C)C)NC(=O)[C@H](CCCCN)NC(=O)[C@H](CCCCNC(=O)[C@H](CC(C)C)NC(=O)[C@H](CCCCN)NC(=O)[C@H](CCCCNC(=O)[C@H](CC(C)C)NC(=O)[C@H](CCCCN)NC(=O)[C@H](CCCCNC(=O)[C@H](CC(C)C)NC(=O)[C@@H](N)CCCCN)NC(=O)[C@H](CC(C)C)NC(=O)[C@@H](N)CCCCN)NC(=O)[C@H](CC(C)C)NC(=O)[C@H](CCCCN)NC(=O)[C@H](CCCCNC(=O)[C@H](CC(C)C)NC(=O)[C@@H](N)CCCCN)NC(=O)[C@H](CC(C)C)NC(=O)[C@@H](N)CCCCN)NC(=O)[C@H](CC(C)C)NC(=O)[C@H](CCCCN)NC(=O)[C@H](CCCCNC(=O)[C@H](CC(C)C)NC(=O)[C@H](CCCCN)NC(=O)[C@H](CCCCNC(=O)[C@H](CC(C)C)NC(=O)[C@@H](N)CCCCN)NC(=O)[C@H](CC(C)C)NC(=O)[C@@H](N)CCCCN)NC(=O)[C@H](CC(C)C)NC(=O)[C@H](CCCCN)NC(=O)[C@H](CCCCNC(=O)[C@H](CC(C)C)NC(=O)[C@@H](N)CCCCN)NC(=O)[C@H](CC(C)C)NC(=O)[C@@H](N)CCCCN)C(N)=O [MSt-264, (KL)8(KKL)4(KKL)2(KKLKC6)] (I: H-KLK([Leu-Lys])KLKKLKKLK(Hexanoyl)-NH2 / II: H-KLK([Leu-Lys])KLKKL / III: H-KLK([Leu-Lys])KL / IV: H-KLK([Leu-Lys])KL; amide I:6-IV:C, I:9-II:C, II:6-III:C) | 1 (≈ 0.21 µM) | 1 (≈ 0.21 µM) | 5 (≈ 1.05 µM) | –
5 | CC(C)C[C@H](NC(=O)[C@H](CCN)NC(=O)[C@H](CCCCNC(=O)[C@H](CC(C)C)NC(=O)[C@@H](N)CCN)NC(=O)[C@H](CC(C)C)NC(=O)[C@@H](N)CCN)C(=O)NCCCC[C@H](NC(=O)[C@H](CC(C)C)NC(=O)[C@H](CCN)NC(=O)[C@H](CCCCNC(=O)[C@H](CC(C)C)NC(=O)[C@@H](N)CCN)NC(=O)[C@H](CC(C)C)NC(=O)[C@@H](N)CCN)C(=O)N[C@@H](CCN)C(=O)N[C@@H](Cc1c[nH]c2ccccc12)C(=O)NCCCC[C@H](NC(=O)[C@H](Cc1c[nH]c2ccccc12)NC(=O)[C@H](CCN)NC(=O)[C@H](CCCCNC(=O)[C@H](CC(C)C)NC(=O)[C@H](CCN)NC(=O)[C@H](CCCCNC(=O)[C@H](CC(C)C)NC(=O)[C@@H](N)CCN)NC(=O)[C@H](CC(C)C)NC(=O)[C@@H](N)CCN)NC(=O)[C@H](CC(C)C)NC(=O)[C@H](CCN)NC(=O)[C@H](CCCCNC(=O)[C@H](CC(C)C)NC(=O)[C@@H](N)CCN)NC(=O)[C@H](CC(C)C)NC(=O)[C@@H](N)CCN)C(=O)N[C@@H](CCN)C(=O)N[C@@H](Cc1c[nH]c2ccccc12)C(N)=O [MSt-203, (DabL)8(KDabL)4(KDabW)2(KDabW)] (I: H-[Dab]LK([Leu-Dab])[Dab]LK[Dab]WK[Dab]W-NH2 / II: H-[Dab]LK([Leu-Dab])[Dab]LK[Dab]W / III: H-[Dab]LK([Leu-Dab])[Dab]L / IV: H-[Dab]LK([Leu-Dab])[Dab]L; amide I:6-IV:C, I:9-II:C, II:6-III:C; N-terminus assumed) | 2 (≈ 0.462 µM) | 2 (≈ 0.462 µM) | 2 (≈ 0.462 µM) | –
6 | CC(C)C[C@H](NC(=O)[C@H](CCCNC(=N)N)NC(=O)[C@H](CNC(=O)[C@H](CC(C)C)NC(=O)[C@H](CCCNC(=N)N)NC(=O)[C@H](CNC(=O)[C@H](CC(C)C)NC(=O)[C@H](CCCNC(=N)N)NC(=O)[C@H](CNC(=O)[C@H](CC(C)C)NC(=O)[C@@H](N)CCCNC(=N)N)NC(=O)[C@H](CC(C)C)NC(=O)[C@@H](N)CCCNC(=N)N)NC(=O)[C@H](CC(C)C)NC(=O)[C@H](CCCNC(=N)N)NC(=O)[C@H](CNC(=O)[C@H](CC(C)C)NC(=O)[C@@H](N)CCCNC(=N)N)NC(=O)[C@H](CC(C)C)NC(=O)[C@@H](N)CCCNC(=N)N)NC(=O)[C@H](CC(C)C)NC(=O)[C@H](CCCNC(=N)N)NC(=O)[C@H](CNC(=O)[C@H](CC(C)C)NC(=O)[C@H](CCCNC(=N)N)NC(=O)[C@H](CNC(=O)[C@H](CC(C)C)NC(=O)[C@@H](N)CCCNC(=N)N)NC(=O)[C@H](CC(C)C)NC(=O)[C@@H](N)CCCNC(=N)N)NC(=O)[C@H](CC(C)C)NC(=O)[C@H](CCCNC(=N)N)NC(=O)[C@H](CNC(=O)[C@H](CC(C)C)NC(=O)[C@@H](N)CCCNC(=N)N)NC(=O)[C@H](CC(C)C)NC(=O)[C@@H](N)CCCNC(=N)N)C(N)=O [MSt-137, (RL)8(BRL)4(BRL)2(BRL)] (I: H-RL[Dap]([Leu-Arg])RL[Dap]RL[Dap]RL-NH2 / II: H-RL[Dap]([Leu-Arg])RL[Dap]RL / III: H-RL[Dap]([Leu-Arg])RL / IV: H-RL[Dap]([Leu-Arg])RL; amide I:6-IV:C, I:9-II:C, II:6-III:C) | 7 (≈ 1.5 µM) | 3 (≈ 0.644 µM) | 4 (≈ 0.858 µM) | –
